Data taken from ChEMBL document CHEMBL5029181, “Synthesis and evaluation of potent novel inhibitors of human sulfide:quinone oxidoreductase” (Bioorg Med Chem Lett, 2021).
pIC50: −log10 of the molar value. Values after ≈ are worked out from the molar mass of the structure shown.

Experiments:
[1] = target: Sulfide:quinone oxidoreductase, mitochondrial (Homo sapiens, UniProt Q9Y6N5); assay: Inhibition of human SQOR
[2] = Protein binding in mouse plasma; type: ADME, cell-free; conditions: read-out: PPB (converted)
[3] = Permeability of the compound from apical to basolateral side in human Caco-2 cells; type: ADME, cell-based; conditions: read-out: permeability
[4] = AUClast in mouse at 10 mg/kg, ip; type: ADME, organism-based; design: time 0 - last, route intraperitoneal, dose 10 mg/kg; conditions: in vivo
[5] = Aqueous solubility of the compound at pH 7; conditions: buffer
[6] = Half life in mouse at 10 mg/kg, ip; type: ADME, organism-based; conditions: in vivo
[7] = Permeability of the compound from basolateral to apical side in human Caco-2 cells; type: ADME, cell-based; conditions: read-out: permeability

Sequence of Sulfide:quinone oxidoreductase, mitochondrial (Q9Y6N5 whole entry): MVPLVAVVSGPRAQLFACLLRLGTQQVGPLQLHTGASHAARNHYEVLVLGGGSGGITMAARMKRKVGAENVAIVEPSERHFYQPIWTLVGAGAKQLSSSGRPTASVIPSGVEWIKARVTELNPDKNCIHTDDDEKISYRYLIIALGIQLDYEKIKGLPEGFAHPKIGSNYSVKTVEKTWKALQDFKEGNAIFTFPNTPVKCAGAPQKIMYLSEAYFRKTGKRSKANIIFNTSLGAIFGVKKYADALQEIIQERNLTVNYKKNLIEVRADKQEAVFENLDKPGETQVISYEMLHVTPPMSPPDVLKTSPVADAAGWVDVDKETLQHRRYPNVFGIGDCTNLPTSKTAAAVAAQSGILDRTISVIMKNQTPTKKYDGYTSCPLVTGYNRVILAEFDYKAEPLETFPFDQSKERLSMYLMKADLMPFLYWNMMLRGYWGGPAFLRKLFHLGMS

Structure (SMILES) | pIC50 [1] | also measured
COc1nc(-c2ccccc2)cc(-c2ccc(Cl)cc2Cl)c1C#N | < 4.00 | –
COc1nc(-c2ccccc2)cc(-c2ccc(F)cc2)c1C#N | 7.60 | –
C=CCOc1nc(-c2ccccn2)cc(-c2ccc(F)cc2)c1C#N | 8.26 | –
COc1ccc(-c2cc(-c3ccc(F)cc3)c(C#N)c(OC)n2)cc1 | 5.87 | –
COc1nc(-c2cccnc2)cc(-c2ccc(F)cc2)c1C#N | 6.67 | –
CCSc1nc(-c2ccccc2)cc(-c2ccccc2)c1C#N | 6.88 | –
COc1ccccc1-c1cc(-c2ccc(F)cc2)c(C#N)c(OC)n1 | 7.12 | –
COc1nc(-c2ccccn2)cc(-c2ccc(F)cc2)c1C#N | 7.85 | –
COc1cccc(-c2cc(-c3ccc(F)cc3)c(C#N)c(OC)n2)c1 | 6.97 | –
COc1nc(-c2ccccc2)cc(-c2ccncc2)c1C#N | 6.27 | –
COc1nc(-c2ncccc2C)cc(-c2ccc(F)cc2)c1C#N | 8.06 | fraction unbound [2]: 0.0036; Papp A→B [3]: 0.455 ×10⁻⁶ cm/s; AUC(0-t) [4]: 42 ng·h/mL; solubility [5]: 0.013 µM (≈ 4.15 ng/mL); half-life [6]: 5.96 h; Papp B→A [7]: 0.769 ×10⁻⁶ cm/s
N#Cc1c(-c2ccccc2)cc(-c2ccccc2)nc1OCc1ccccc1 | 7.00 | –
Cc1cccnc1-c1cc(-c2ccc(F)cc2)c(C#N)c(OCc2cccnc2)n1 | 7.44 | –
COc1nc2c(c(-c3ccccc3)c1C#N)Cc1ccccc1-2 | 8.68 | –
COc1nc(-c2ccccn2)cc(-c2ccc(F)cc2)c1C(N)=O | 4.79 | –
COc1nc(-c2ccncc2)cc(-c2ccc(F)cc2)c1C#N | 4.76 | –
COCCOc1nc(-c2ccccc2)cc(-c2ccc(F)cc2)c1C#N | 6.91 | –
COc1nc(-c2ccccn2)cc(C(C)(C)C)c1C#N | 6.07 | –
COc1nc(C(C)(C)C)cc(-c2ccc(F)cc2)c1C#N | 6.82 | –
COc1nc(-c2ccccc2)cc(-c2ccccc2)c1C#N | 7.28 | –
COc1nc(-c2ncccc2C)cc(-c2ccc(N)cc2)c1C#N | – | fraction unbound [2]: 0.022; AUC(0-t) [4]: 1080 ng·h/mL; half-life [6]: 1.13 h
COc1nc(-c2ccccc2)cc(-c2ccc(Cl)cc2)c1C#N | 6.60 | –
